The source of these data is patent publication US11939334B2, “Substituted pyrimido[4,5-b][1,4]diazepines as PLK1 degradation inducers” (UPPTHERA, INC., priority 2021, dated 2024).

Where only a bound is given, the exact number is not on record here.

Data set [1] is described as follows: Cell viability assay for MRC-5 cell line. Conditions: human.
Description: Cell Viability Assay for MRC-5 Cell Line
(1) Culture of MRC-5 Cell Line
The MRC-5 cell line was purchased from Korea Cell Line Bank (KCLB), Seoul, Korea. Passage of cultured cells was maintained within P15.
6×10^3 cells were seeded for each well of a 96-well plate (SPL), and the cells were cultured in total volume of 150 μL.
Each well was mixed with a medium and treated, and the volume was set to 50 μL, so that the total volume of each well was 200 μL. Then, it was cultured in 37° C.
The following compounds were used as comparative examples, and the cell viability assay was performed in the same manner as in the compounds of Examples.
(3) Cytotoxicity Experiment
After treating EZ-Cytox (DOGEN, Cat. NO. EZ-3000, Lot. No. DLS2112) 20 μL in each well of completely cultured plate, it was cultured in 37° C. CO2 incubator for 4 hours. […] The data were converted into graphs using the Prism (ver. 9) program.
Another data set deals with T1, PLK1 (Homo sapiens, UniProt P53350).
T1 construct: endogenous in cells; host or cells: HeLa cells stably expressing LgBit, with CRISPR/Cas9 knock-in of HiBit at the endogenous PLK1 locus
Kind of data set: Luciferase assay for PLK1 in HeLa LgBit (Plk1-HiBit KI) cell line. Format: cell-based. As to conditions: 300 nM compound, luminescence after 9 hours. The protocol:
2. Luciferase Assay for PLK1
(1) Preparation and Culture of HeLa LgBit (Plk1-HiBit KI) Cell Line
A HeLa cell line in which the LgBit vector was transfected and expressed stably was prepared. Then, after constructing gRNA and donor to express the HiBit amino acid sequence behind the C-terminal of the Plk1 gene, which was inherent in the cell, it was inserted into the cell together with a vector capable of expressing CRISPR/Cas9. Only the cells in which the insertion was completed and knock-in had progressed were selected, sub-cultured and used.
(2) Treatment of Compounds of the Present Invention and Method of Luciferase Assay
In the case of HeLa LgBit (Plk1-HiBit KI), the compounds were treated after being released after thymidine block, and the process was as follows. Thymidine (Sigma-Aldrich Cat. No. T9250-5G) was completely dissolved in DW and used in the experiment. For thymidine block, the products were treated with 2 mM of thymidine and then incubated for 24 hours. For release and chemical treatment, the medium was suctioned and washed with 1×PBS. TrypLE™ was added and incubated in 37° C. CO2 incubator for 5 min. Cells neutralized by adding complete media were counted through a counter. For each well of a 96-well culture plate (SPL), 3.3×10^4 cells and a total medium volume of 150 μL were seeded and incubated in a CO2 incubator.
Each cell line was incubated in a CO2 incubator for 18 hours, and Endurazine was added to each well to make up 4% of the total volume. After adding the compound of the present invention in a 96-well white plate (SPL) to a concentration of 300 nM, the wavelength of the plate reader (BMG Labtech, CLARIOstar Plus) was set to […], and then the luminescence was tracked in real time.
The results are shown in Table 2 below and FIGS. 1 and 2.
In Table 2, Activity represents the ratio of the luminescence value of each Exemplary Compound treatment group to DMSO treatment group (+++: <0.3, ++ <0.6, + <0.7).

Another data set relates to H526 cell line. In words: Cell viability assay for H526 cell line. Format: cell-based. Conditions: Homo sapiens, NCI-H526, 120 h; H526 cells, 5 days, EZ-Cytox, 0.46-3000 nM. The protocol: 3. Cell Viability Assay for H526 Cell Line
(1) Culture of NCI-H526 Cell Line
(2) Treatment of Compounds of the Present Invention and Method of Cell Viability Assay
After treating the compound to each well to make the total volume of 200 μL, it was cultured in a CO2 incubator (Thermo Fisher Science, Cat. No. 4111) for 5 days.
The absorbance of the completely cultured sample was measured by setting the wavelength of a plate reader (BMG Labtech, CLARIOstar Plus) to […], and was measured after shaking for 3 minutes in a plate reader before measurement.
In Table 3, Activity represents IC50 value of each Exemplary Compound treatment group to H526 cell line (A: <30 nM, B: <50 nM, C: <100 nM, D: <200 nM, E: <400 nM).

T1 sequence (P53350 whole entry): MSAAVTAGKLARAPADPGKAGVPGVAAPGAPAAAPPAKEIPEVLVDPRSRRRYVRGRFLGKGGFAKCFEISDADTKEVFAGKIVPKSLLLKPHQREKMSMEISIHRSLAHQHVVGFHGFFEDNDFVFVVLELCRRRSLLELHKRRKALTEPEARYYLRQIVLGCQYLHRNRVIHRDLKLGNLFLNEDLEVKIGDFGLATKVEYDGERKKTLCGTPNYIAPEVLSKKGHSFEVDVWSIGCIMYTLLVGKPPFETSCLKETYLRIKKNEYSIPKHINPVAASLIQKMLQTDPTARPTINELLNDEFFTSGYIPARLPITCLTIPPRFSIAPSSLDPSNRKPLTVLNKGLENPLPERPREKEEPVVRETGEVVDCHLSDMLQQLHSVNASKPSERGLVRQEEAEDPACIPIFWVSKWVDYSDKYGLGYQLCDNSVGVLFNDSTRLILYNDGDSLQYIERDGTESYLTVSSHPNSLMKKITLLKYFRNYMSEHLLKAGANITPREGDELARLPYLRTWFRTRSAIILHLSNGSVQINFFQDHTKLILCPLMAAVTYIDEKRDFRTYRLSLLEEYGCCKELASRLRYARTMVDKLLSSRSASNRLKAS

In the case of `COc1cc(C(=O)NN2CC(F)(F)CC2CCN2CCN(c3ccc(C4CCC(=O)NC4=O)cc3F)CC2)ccc1Nc1ncc2c(n1)N(C(C)C)CC(F)(F)C(=O)N2C` (centres unmarked) [Compound 17, 4-((7,7-difluoro-9-isopropyl-5-methyl-6-oxo-6,7,8,9-tetrahydro-5H-pyrimido[4,5-b][1,4]diazepin-2-yl)amino)-N-(2-(2-(4-(4-(2,6-dioxopiperidin-3-yl)-2-fluorophenyl)piperazin-1-yl)ethyl)-4,4-difluoropyrrolidin-1-yl)-3-methoxybenzamide], in data set [1] (MRC-5 cells (normal cell line)), the IC50 at 5 days was more than 10000 nM. Also, the “Activity: ratio of the luminescence value of each Exemplary Compound treatment group to DMSO treatment group” value (shortened to “Activity: ratio”) on PLK1 is recorded as “++ (++ <0.6)”. In the data set on H526 cell line, this compound registered an IC50 of less than 50 nM.
As to `COc1cc(C(=O)NC2CCN(C(=O)CCCOc3cccc(C4CCC(=O)NC4=O)c3)CC2)ccc1Nc1ncc2c(n1)N(C(C)C)CC(F)(F)C(=O)N2C` (centres unmarked) [Compound 1, 4-((7,7-difluoro-9-isopropyl-5-methyl-6-oxo-6,7,8,9-tetrahydro-5H-pyrimido[4,5-b][1,4]diazepin-2-yl)amino)-N-(1-(4-(3-(2,6-dioxopiperidin-3-yl)phenoxy)butanoyl)piperidin-4-yl)-3-methoxybenzamide], the IC50 at 5 days in data set [1] (MRC-5 cells (normal cell line)) was more than 10000 nM. On PLK1, the “Activity: ratio” value is on record as “+++ (+++: <0.3)”. Further, the IC50 with H526 cell line was less than 50 nM.
The compound `COc1cc(C(=O)NN2CCN(C(=O)CCC3CCN(c4ccc(C5CCC(=O)NC5=O)cc4F)CC3)CC2)ccc1Nc1ncc2c(n1)N(C(C)C)CC(F)(F)C(=O)N2C` (centres unmarked) [Compound 11, 4-((7,7-difluoro-9-isopropyl-5-methyl-6-oxo-6,7,8,9-tetrahydro-5H-pyrimido[4,5-b][1,4]diazepin-2-yl)amino)-N-(1-(3-(1-(4-(2,6-dioxopiperidin-3-yl)-2-fluorophenyl)piperidin-4-yl)propanoyl)piperazin-1-yl)-3-methoxybenzamide] gave a 50% inhibitory concentration (IC50) at 5 days in data set [1] (MRC-5 cells (normal cell line)) of more than 10000 nM. The “Activity: ratio” value at PLK1 is “++ (++ <0.6)”. The compound also registered an IC50 in the data set with H526 cell line of less than 50 nM.
Take `COc1cc(C(=O)OC2CC3(CCN(CC4CCN(c5ccc(C6CCC(=O)NC6=O)cc5F)CC4)CC3)C2)ccc1Nc1ncc2c(n1)N(C(C)C)CC(F)(F)C(=O)N2C` (centres unmarked) [Compound 25, 7-((1-(4-(2,6-dioxopiperidin-3-yl)-2-fluorophenyl)piperidin-4-yl)methyl)-7-azaspiro[3.5]nonan-2-yl 4-((7,7-difluoro-9-isopropyl-5-methyl-6-oxo-6,7,8,9-tetrahydro-5H-pyrimido[4,5-b][1,4]diazepin-2-yl)amino)-3-methoxybenzoate]: the IC50 at 5 days in data set [1] was more than 10000 nM. In addition, the “Activity: ratio” value on PLK1 is on record as “++ (++ <0.6)”. Besides, the IC50 in the data set on H526 cell line is less than 200 nM.
In turn, `COc1cc(C(=O)NN2CCC(F)(CN3CCN(c4ccc(C5CCC(=O)NC5=O)cc4F)CC3)CC2)ccc1Nc1ncc2c(n1)N(C(C)C)CC(F)(F)C(=O)N2C` (centres unmarked) [Compound 18, 4-((7,7-difluoro-9-isopropyl-5-methyl-6-oxo-6,7,8,9-tetrahydro-5H-pyrimido[4,5-b][1,4]diazepin-2-yl)amino)-N-(4-((4-(4-(2,6-dioxopiperidin-3-yl)-2-fluorophenyl)piperazin-1-yl)methyl)-4-fluoropiperidin-1-yl)-3-methoxybenzamide] gave an IC50 at 5 days in data set [1] (MRC-5 cells (normal cell line)) of more than 10000 nM. The “Activity: ratio” value at PLK1 is recorded as “++ (++ <0.6)”. The compound further had an IC50 with H526 cell line of less than 100 nM.
Take `COc1cc(C(=O)NC2CCN(C(=O)CCN3CCN(c4ccc(C5CCC(=O)NC5=O)cc4)CC3)CC2)ccc1Nc1ncc2c(n1)N(C(C)C)CC(F)(F)C(=O)N2C` (centres unmarked) [Compound 2, 4-((7,7-difluoro-9-isopropyl-5-methyl-6-oxo-6,7,8,9-tetrahydro-5H-pyrimido[4,5-b][1,4]diazepin-2-yl)amino)-N-(1-(3-(4-(4-(2,6-dioxopiperidin-3-yl)phenyl)piperazin-1-yl)propanoyl)piperidin-4-yl)-3-methoxybenzamide]: the IC50 at 5 days in data set [1] (MRC-5 cells (normal cell line)) is more than 10000 nM. Moreover, the “Activity: ratio” value at PLK1 was “++ (++ <0.6)”. Besides, the IC50 in the data set with H526 cell line is less than 30 nM.
In the same order, the values of `COc1cc(C(=O)NN2CCC(CCN3CCN(c4ccc(C5CCC(=O)NC5=O)cc4F)CC3)CC2)ccc1Nc1ncc2c(n1)N(C(C)C)CC(F)(F)C(=O)N2C` (centres unmarked) [Compound 45, 4-((7,7-difluoro-9-isopropyl-5-methyl-6-oxo-6,7,8,9-tetrahydro-5H-pyrimido[4,5-b][1,4]diazepin-2-yl)amino)-N-(4-(2-(4-(4-(2,6-dioxopiperidin-3-yl)-2-fluorophenyl)piperazin-1-yl)ethyl)piperidin-1-yl)-3-methoxybenzamide] are more than 10000 nM, “+++ (+++: <0.3)” and less than 30 nM.
As for `COc1cc(C(=O)NC2CCN(C(=O)CCN3CCN(c4ccc(C5CCC(=O)NC5=O)cc4)CC3)CC2)ccc1Nc1ncc2c(n1)N(C(C)C)CC1(CC1)C(=O)N2C` (centres unmarked) [Compound 3, N-(1-(3-(4-(4-(2,6-dioxopiperidin-3-yl)phenyl)piperazin-1-yl)propanoyl)piperidin-4-yl)-4-((9′-isopropyl-5′-methyl-6′-oxo-5′,6′,8′,9′-tetrahydrospiro[cyclopropane-1,7′-pyrimido[4,5-b][1,4]diazepin]-2′-yl)amino)-3-methoxybenzamide], the IC50 at 5 days in data set [1] (MRC-5 cells (normal cell line)) is more than 10000 nM. Besides, the “Activity: ratio” value on PLK1 is listed as “++ (++ <0.6)”. This compound yielded an IC50 with H526 cell line of less than 100 nM.
In the case of `COc1cc(C(=O)NN2CCC(CN3CCC4(CC3)CN(c3ccc(C5CCC(=O)NC5=O)cc3F)C4)CC2)ccc1Nc1ncc2c(n1)N(C(C)C)CC(F)(F)C(=O)N2C` (centres unmarked) [Compound 42, 4-((7,7-difluoro-9-isopropyl-5-methyl-6-oxo-6,7,8,9-tetrahydro-5H-pyrimido[4,5-b][1,4]diazepin-2-yl)amino)-N-(4-((2-(4-(2,6-dioxopiperidin-3-yl)-2-fluorophenyl)-2,7-diazaspiro[3.5]nonan-7-yl)methyl)piperidin-1-yl)-3-methoxybenzamide], in data set [1] (MRC-5 cells (normal cell line)), the IC50 at 5 days is more than 10000 nM. The “Activity: ratio” value at PLK1 is recorded as “++ (++ <0.6)”. Moreover, in the data set on H526 cell line, the half-maximal inhibitory concentration (IC50) is less than 30 nM.
For `COc1cc(C(=O)NC2CCC(CCN3CCN(c4ccc(C5CCC(=O)NC5=O)cc4F)CC3)CC2)ccc1Nc1ncc2c(n1)N(C(C)C)CC(F)(F)C(=O)N2C` (centres unmarked) [Compound 43, 4-((7,7-difluoro-9-isopropyl-5-methyl-6-oxo-6,7,8,9-tetrahydro-5H-pyrimido[4,5-b][1,4]diazepin-2-yl)amino)-N-((1r,4r)-4-(2-(4-(4-(2,6-dioxopiperidin-3-yl)-2-fluorophenyl)piperazin-1-yl)ethyl)cyclohexyl)-3-methoxybenzamide], in that order: more than 10000 nM, “+++ (+++: <0.3)” and less than 30 nM.
As to `COc1cc(C(=O)NN2CCC(N3CC4(CCN(c5ccc(C6CCC(=O)NC6=O)cc5F)CC4)C3)CC2)ccc1Nc1ncc2c(n1)N(C(C)C)CC(F)(F)C(=O)N2C` (centres unmarked) [Compound 40, 4-((7,7-difluoro-9-isopropyl-5-methyl-6-oxo-6,7,8,9-tetrahydro-5H-pyrimido[4,5-b][1,4]diazepin-2-yl)amino)-N-(4-(7-(4-(2,6-dioxopiperidin-3-yl)-2-fluorophenyl)-2,7-diazaspiro[3.5]nonan-2-yl)piperidin-1-yl)-3-methoxybenzamide], at PLK1, the “Activity: ratio” value was “++ (++ <0.6)”. The IC50 in the data set with H526 cell line is less than 30 nM.
